Results on 23 compounds are retold here after patent US11773078B2, “Furin inhibitors” (Glaxosmithkline Intellectual Property Development Limited, priority 2018, dated 2023).

In experiment [1] the target is T1, furin (endogenous protease) in U20S cells (Homo sapiens, UniProt P09958).
T1 construct: the endogenous protease cleaves GFP; endogenous in cells; host or cells: U2OS cells transduced with a BacMam reporter
In words: Furin cell-based assay (image-based, Golgi-targeted GFP with BMP10 furin/PCSK cleavage site).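 Note: Read-out is mean GFP fluorescence of Golgi puncta per cell by high-content imaging, retained when furin inhibited, over an eleven-point 0.00017–10 µM series, four-parameter fit.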 The note with it: 24-hour incubation, read-out: furin golgi cell pXC50 (converted).

In experiment [2] the target is T2, Furin (108-574-Tev-Flag-His) enzyme (Homo sapiens, UniProt P09958).
T2 construct: Furin (108-574-Tev-Flag-His) enzyme was expressed and purified from CHO cells; TEV cleavage site (C); FLAG (C); His (C); made in house; host or cells: CHO cells
T2 sequence (P09958 108-574): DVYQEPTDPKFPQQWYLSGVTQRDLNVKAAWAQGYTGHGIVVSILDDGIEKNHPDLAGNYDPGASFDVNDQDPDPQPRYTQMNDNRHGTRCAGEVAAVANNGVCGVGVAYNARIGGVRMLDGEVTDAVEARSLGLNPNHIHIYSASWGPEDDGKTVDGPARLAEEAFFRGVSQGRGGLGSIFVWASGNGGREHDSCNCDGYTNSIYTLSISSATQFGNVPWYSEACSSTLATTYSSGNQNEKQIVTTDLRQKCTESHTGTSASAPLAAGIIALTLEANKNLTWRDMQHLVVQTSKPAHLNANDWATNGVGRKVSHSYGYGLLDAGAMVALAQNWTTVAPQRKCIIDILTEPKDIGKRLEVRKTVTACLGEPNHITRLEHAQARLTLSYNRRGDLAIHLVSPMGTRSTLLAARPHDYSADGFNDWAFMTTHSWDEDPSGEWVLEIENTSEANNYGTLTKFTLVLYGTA
In words: Furin enzyme assay. It is filed as biochemical. The method, boiled down: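 Compounds ran as 11-point threefold dilutions (0.00017–10 μM final) against 40 pM furin, purified from CHO cells, for 2 h at room temperature. Buffer: 100 mM HEPES pH7.5 with 1 mM CaCl2 and 0.005% Triton X-100. Envision readout. Four-parameter curve gives pXC50.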

T1 sequence (P09958 108-794): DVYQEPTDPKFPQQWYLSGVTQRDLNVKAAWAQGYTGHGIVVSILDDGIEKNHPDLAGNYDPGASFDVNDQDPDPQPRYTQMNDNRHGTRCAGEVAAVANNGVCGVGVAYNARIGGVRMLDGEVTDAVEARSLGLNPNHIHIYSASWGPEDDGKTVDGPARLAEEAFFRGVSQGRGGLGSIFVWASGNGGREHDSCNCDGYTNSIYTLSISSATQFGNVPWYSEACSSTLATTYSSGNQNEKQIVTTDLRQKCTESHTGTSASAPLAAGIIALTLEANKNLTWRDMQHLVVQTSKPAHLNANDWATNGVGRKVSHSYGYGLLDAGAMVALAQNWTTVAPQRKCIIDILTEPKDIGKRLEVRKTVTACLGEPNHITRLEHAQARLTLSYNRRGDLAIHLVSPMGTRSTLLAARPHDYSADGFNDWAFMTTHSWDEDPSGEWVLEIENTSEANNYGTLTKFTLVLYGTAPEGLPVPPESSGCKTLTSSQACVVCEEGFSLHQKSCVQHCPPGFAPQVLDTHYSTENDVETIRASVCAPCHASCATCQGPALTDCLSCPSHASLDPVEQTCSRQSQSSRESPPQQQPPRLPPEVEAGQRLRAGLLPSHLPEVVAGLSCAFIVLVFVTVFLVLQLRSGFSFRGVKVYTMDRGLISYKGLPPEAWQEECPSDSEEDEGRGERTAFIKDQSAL

Take `CC(CC(=O)O)C1CN(Cc2cc(Oc3cnc(N4CCN(C)CC4)nc3)nc(-c3cc(Cl)cc(Cl)c3)c2)C1` (stereo not shown) [Example 127, 3-(1-((2-(3,5-dichlorophenyl)-6-((2-(4-methylpiperazin-1-yl)pyrimidin-5-yl)oxy)pyridin-4-yl)methyl)azetidin-3-yl)butanoic acid]: in experiment [1], the EC50 is 501 nM. In addition, the “furin enzyme pIC50” value in experiment [2] came out at 8.8.

Consider `CN1CCN(c2ncc(Oc3cc(CN4CCC(OCC(=O)O)C4)cc(-c4cc(Cl)cc(Cl)c4)n3)cn2)CC1` (stereo not shown) [Example 128, 2-((1-((2-(3,5-dichlorophenyl)-6-((2-(4-methylpiperazin-1-yl)pyrimidin-5-yl)oxy)pyridin-4-yl)methyl)pyrrolidin-3-yl)oxy)acetic acid], for which the EC50 in experiment [1] was 631 nM. The “furin enzyme pIC50” value in experiment [2] was determined as 7.9.

In the case of `CN1CCN(c2ncc(Oc3cc(CN4CC5CC(CC(=O)O)CC5C4)cc(-c4cc(Cl)cc(Cl)c4)n3)cn2)CC1` (stereo not shown) [Example 129, 2-(2-((2-(3,5-dichlorophenyl)-6-((2-(4-methylpiperazin-1-yl)pyrimidin-5-yl)oxy)pyridin-4-yl)methyl)octahydrocyclopenta[c]pyrrol-5-yl)acetic acid], in experiment [1], the EC50 is 79.4 nM. Further, the “furin enzyme pIC50” value in experiment [2] is 8.2.

For the compound `CN1CCN(c2ncc(Oc3cc(CN4CCC(CCC(=O)O)CC4)cc(-c4cc(Cl)cc(Cl)c4)n3)cn2)CC1` [Example 130, 3-(1-((2-(3,5-dichlorophenyl)-6-((2-(4-methylpiperazin-1-yl)pyrimidin-5-yl)oxy)pyridin-4-yl)methyl)piperidin-4-yl)propanoic acid], in experiment [1], the EC50 was 7.94 nM. Besides, the “furin enzyme pIC50” value in experiment [2] amounted to 8.7.

Regarding `CC(CC1CCN(Cc2cc(Oc3cnc(N4CCN(C)CC4)nc3)nc(-c3cc(Cl)cc(Cl)c3)c2)CC1)C(=O)O` (stereo not shown) [Example 131, 3-(1-((2-(3,5-dichlorophenyl)-6-((2-(4-methylpiperazin-1-yl)pyrimidin-5-yl)oxy)pyridin-4-yl)methyl)piperidin-4-yl)-2-methylpropanoic acid], the EC50 in experiment [1] is 31.6 nM. Further, in experiment [2], the “furin enzyme pIC50” value is listed as 8.7.

With `O=C(O)CC1CCN(Cc2cc(Oc3cnc(N4CCCNCC4)nc3)nc(-c3cc(Cl)cc(Cl)c3)c2)CC1` [Example 132, 2-(1-((2-((2-(1,4-diazepan-1-yl)pyrimidin-5-yl)oxy)-6-(3,5-dichlorophenyl)pyridin-4-yl)methyl)piperidin-4-yl)acetic acid], the EC50 in experiment [1] was 63.1 nM. In addition, in experiment [2], the “furin enzyme pIC50” value stood at 8.8.

Take `CN1CC2CN(c3ncc(Oc4cc(CN5CCC(CC(=O)O)CC5)cc(-c5cc(Cl)cc(Cl)c5)n4)cn3)CC2C1` (stereo not shown) [Example 133, 2-(1-((2-(3,5-dichlorophenyl)-6-((2-(5-methylhexahydropyrrolo[3,4-c]pyrrol-2(1H)-yl)pyrimidin-5-yl)oxy)pyridin-4-yl)methyl)piperidin-4-yl)acetic acid]: the EC50 in experiment [1] was 39.8 nM. Further, the “furin enzyme pIC50” value in experiment [2] turned out to be 8.3.

With `C[C@@H](CC1CCN(Cc2cc(Oc3cnc(N4CCN(C)CC4)nc3)nc(-c3cc(Cl)cc(Cl)c3)c2)CC1)C(=O)O` [Example 134], the EC50 in experiment [1] is 25.1 nM. The “furin enzyme pIC50” value in experiment [2] stood at 9.5.

Regarding `CN1CCN(c2ncc(Oc3cc(CN4CCC5(CC4)CN(C(=O)CO)C5)cc(-c4cc(Cl)cc(Cl)c4)n3)cn2)CC1` [Example 135, 1-(7-((2-(3,5-dichlorophenyl)-6-((2-(4-methylpiperazin-1-yl)pyrimidin-5-yl)oxy)pyridin-4-yl)methyl)-2,7-diazaspiro[3.5]nonan-2-yl)-2-hydroxyethanone], the EC50 in experiment [1] was 10 nM. Also, the “furin enzyme pIC50” value in experiment [2] was 9.2.

`CN1CCN(c2ccc(Oc3cc(CN4CC[C@@H]5[C@H](CC4)[C@H]5C(=O)O)cc(-c4cc(Cl)cc(Cl)c4)n3)cn2)CC1` [Example 136, (1R,7S,8r)-4-((2-(3,5-dichlorophenyl)-6-((6-(4-methylpiperazin-1-yl)pyridin-3-yl)oxy)pyridin-4-yl)methyl)-4-azabicyclo[5.1.0]octane-8-carboxylic acid]: the EC50 in experiment [1] is 15.8 nM. In addition, the “furin enzyme pIC50” value in experiment [2] is listed as 9.8.

Consider `CC(O)CC1CCN(Cc2cc(Oc3cnc(N4CCN(C)CC4)nc3)nc(-c3cc(Cl)cc(Cl)c3)c2)CC1` (stereo not shown) [Example 138, 1-(1-((2-(3,5-dichlorophenyl)-6-((2-(4-methylpiperazin-1-yl)pyrimidin-5-yl)oxy)pyridin-4-yl)methyl)piperidin-4-yl)propan-2-ol], for which the EC50 in experiment [1] was 7.94 nM. In experiment [2], the “furin enzyme pIC50” value is reported as 9.1.

`CN1CCN(c2ncc(Oc3cc(CN4CCC(CC(O)C(=O)O)CC4)cc(-c4cc(Cl)cc(Cl)c4)n3)cn2)CC1` (stereo not shown) [Example 139, 3-(1-((2-(3,5-dichlorophenyl)-6-((2-(4-methylpiperazin-1-yl)pyrimidin-5-yl)oxy)pyridin-4-yl)methyl)piperidin-4-yl)-2-hydroxypropanoic acid]: the EC50 in experiment [1] is 10 nM. The “furin enzyme pIC50” value in experiment [2] was 9.3.

With `CN1CCCN(c2ncc(Oc3cc(CN4CCC(OCC(=O)O)CC4)cc(-c4cc(Cl)cc(Cl)c4)n3)cn2)CC1` [Example 140, 2-((1-((2-(3,5-dichlorophenyl)-6-((2-(4-methyl-1,4-diazepan-1-yl)pyrimidin-5-yl)oxy)pyridin-4-yl)methyl)piperidin-4-yl)oxy)acetic acid], the EC50 in experiment [1] is 7.94 nM. Also, the “furin enzyme pIC50” value in experiment [2] came out at 8.8.

As for `CN1CCN(c2ccc(Oc3cc(CN4CCC5(CC4)CNC(=O)OC5)cc(-c4cc(Cl)cc(Cl)c4)n3)cn2)CC1` [Example 141, 9-((2-(3,5-dichlorophenyl)-6-((6-(4-methylpiperazin-1-yl)pyridin-3-yl)oxy)pyridin-4-yl)methyl)-2-oxa-4,9-diazaspiro[5.5]undecan-3-one], the EC50 in experiment [1] was 5.01 nM. Also, the “furin enzyme pIC50” value in experiment [2] is 8.6.

`CN1CCN(c2ncc(Oc3cc(CN4CCC(CC(N)=O)CC4)cc(-c4cc(Cl)cc(Cl)c4)n3)cn2)CC1` [Example 142, 2-(1-((2-(3,5-dichlorophenyl)-6-((2-(4-methylpiperazin-1-yl)pyrimidin-5-yl)oxy)pyridin-4-yl)methyl)piperidin-4-yl)acetamide]: in experiment [1], the EC50 is 6.31 nM. Besides, the “furin enzyme pIC50” value in experiment [2] worked out at 8.8.

On to `CN1CCN(c2ncc(Oc3cc(CN4CCC(OC5(C(=O)O)CC5)CC4)cc(-c4cc(Cl)cc(Cl)c4)n3)cn2)CC1` [Example 143, 1-((1-((2-(3,5-dichlorophenyl)-6-((2-(4-methylpiperazin-1-yl)pyrimidin-5-yl)oxy)pyridin-4-yl)methyl)piperidin-4-yl)oxy)cyclopropanecarboxylic acid], for which the EC50 in experiment [1] was 20 nM. Moreover, the “furin enzyme pIC50” value in experiment [2] is given as 8.4.

As to `COC1CN(C)CCN(c2ncc(Oc3cc(CN4CCC(CC(=O)O)CC4)cc(-c4cc(Cl)cc(Cl)c4)n3)cn2)C1` (stereo not shown) [Example 144, 2-(1-((2-(3,5-dichlorophenyl)-6-((2-(6-methoxy-4-methyl-1,4-diazepan-1-yl)pyrimidin-5-yl)oxy)pyridin-4-yl)methyl)piperidin-4-yl)acetic acid], the EC50 in experiment [1] is 7.94 nM. Besides, the “furin enzyme pIC50” value in experiment [2] is 8.5.

`CC(=O)NCC1CCN(Cc2cc(Oc3ccc(N4CCN(C)CC(F)C4)nc3)nc(-c3cc(Cl)cc(Cl)c3)c2)CC1` (stereo not shown) [Example 145, N-((1-((2-(3,5-dichlorophenyl)-6-((6-(6-fluoro-4-methyl-1,4-diazepan-1-yl)pyridin-3-yl)oxy)pyridin-4-yl)methyl)piperidin-4-yl)methyl)acetamide]: the EC50 in experiment [1] is 2 nM. Moreover, the “furin enzyme pIC50” value in experiment [2] came to 8.9.

Consider `CN1CCN(c2ncc(Oc3cc(CN4CCC(CC(=O)O)CC4)cc(-c4cc(Cl)cc(Cl)c4)n3)cn2)CC(C)(O)C1` (stereo not shown) [Example 146, 2-(1-((2-(3,5-dichlorophenyl)-6-((2-(6-hydroxy-4,6-dimethyl-1,4-diazepan-1-yl)pyrimidin-5-yl)oxy)pyridin-4-yl)methyl)piperidin-4-yl)acetic acid], for which the EC50 in experiment [1] is 15.8 nM. In experiment [2], the “furin enzyme pIC50” value was 8.5.

On to `CN1CCN(c2ncc(Oc3cc(CN4CCC(CC(=O)O)CC4)cc(-c4cc(Cl)cc(Cl)c4)n3)cn2)CC(F)C1` (stereo not shown) [Example 147, 2-(1-((2-(3,5-dichlorophenyl)-6-((2-(6-fluoro-4-methyl-1,4-diazepan-1-yl)pyrimidin-5-yl)oxy)pyridin-4-yl)methyl)piperidin-4-yl)acetic acid], for which the EC50 in experiment [1] was 31.6 nM. For the same compound, the IC50 in experiment [2] (read-out: furin enzyme pIC50 (converted)) is 0.631 nM.

With `Cc1nc(N2CCN(C)CC2)ncc1Oc1cc(CN2CCC(CC(=O)O)CC2)cc(-c2cc(Cl)cc(Cl)c2)n1` [Example 148, 2-(1-((2-(3,5-dichlorophenyl)-6-((4-methyl-2-(4-methylpiperazin-1-yl)pyrimidin-5-yl)oxy)pyridin-4-yl)methyl)piperidin-4-yl)acetic acid], the EC50 in experiment [1] is 63.1 nM. In experiment [2], the “furin enzyme pIC50” value came to 8.3.

Turning to `Cc1nc(N2CCN(C)CC2)ccc1Oc1cc(CN2CCC(CC(=O)O)CC2)cc(-c2cc(Cl)cc(Cl)c2)n1` [Example 149, 2-(1-((2-(3,5-dichlorophenyl)-6-((2-methyl-6-(4-methylpiperazin-1-yl)pyridin-3-yl)oxy)pyridin-4-yl)methyl)piperidin-4-yl)acetic acid], the EC50 in experiment [1] was 79.4 nM. Moreover, the “furin enzyme pIC50” value in experiment [2] is 8.3.

Consider `CN1CCN(c2ccc(Oc3cc(CN4CCC(CC(=O)O)CC4)cc(-c4cc(Cl)cc(Cl)c4)n3)cc2)CC1` [Example 150, 2-(1-((2-(3,5-dichlorophenyl)-6-(4-(4-methylpiperazin-1-yl)phenoxy)pyridin-4-yl)methyl)piperidin-4-yl)acetic acid], for which the EC50 in experiment [1] is 63.1 nM. Further, in experiment [2], the “furin enzyme pIC50” value was 8.2.
